In US20070128669A1, “Serum-free expansion of cells in culture” (Institute for Chemical Genomics, priority 2005, published 2007):

Legend:
CBP/β-catenin complex = target: T1, CBP/β-catenin complex (Mus musculus, UniProt P45481); assay: Co-immunoprecipitation of β-catenin with CBP in P19 cells; assay type: cell-based; conditions: Wnt3a, 10 μM, 24 hours
T1 construct: endogenous in cells; host or cells: P19 cells (nuclear fraction)
Procedure: Co-immunoprecipitation of β-catenin with CBP or p300 in P19 cells. Co-immunoprecipitation was performed as described in (27). Briefly, P19 cells were treated with 10 μM ICG-001 or 10 μM IQ-1 (control DMSO was 0.025%) for 24 hours, after which they were washed and lysed […]. Nuclear fraction was isolated and precleared with antibodies to CBP(A-22) or p300(N-15). β-catenin was detected using a mouse monoclonal antibody (Becton Dickinson) at a dilution of 1:5000.

Stat3 signaling pathway = assay: pSTAT3-TA-Luc luciferase reporter assay in ESCs; assay type: cell-based, mouse; conditions: 24 hours exposure
Procedure: Transfection and Luciferase assay. ESCs were cultured in 96-well cell culture dishes coated with a 0.1% aqueous gelatin solution and transfected with 0.2 μg/well of pSTAT3-TA-Luc (CLONTECH), using Lipofectamine 2000 (Invitrogen). After 6 hours, cells were washed and exposed to either IQ-1 at the indicated doses, or LIF, for 24 hours. Transfection efficiencies were normalized with pRL-null luciferase plasmid. Luciferase assays were performed with the DUAL-Luciferase Reporter Assay System (Promega).

Murine ESCs (D3 ES) = assay: SSEA-1 expression of ESCs by flow cytometry; assay type: cell-based, mouse; conditions: 7 days after addition of IQ-1
Procedure: Flow Cytometry. Analysis of SSEA-1 expression of ESCs was performed by flow cytometry according to Zandstra et al. (35). The test cell population was washed in ice cold Hanks balanced salt solution (Invitrogen) containing 2% FCS(HF) and resuspended for 10 min in HF containing anti-mouse CD16/CD32 monoclonal antibody at 1 μg/100 μl (Pharmingen) to block nonspecific binding. Blocked cells were then incubated at 1×10^7 cells/ml for 40 min on ice with anti-SSEA-1 (Kyowa Medex) followed by FITC-Goat anti Mouse IgM antibody (ZYMED). Cells to be analyzed for their SSEA-1 expression were then washed twice in HF with 2 μg/ml propidium iodide (Dojindo) added into the final wash. The cells were then resuspended in HF for analysis on a FACS Calibur (Becton Dickinson).

P19 cells = assay: Real-time RT-PCR of stem cell maintenance genes in P19 cells; assay type: cell-based; conditions: Wnt3a and IQ-1 vs Wnt3a+DMSO, from the control gene β-actin
Procedure: (§1) Real-time RT-PCR. Total RNA was isolated and reverse-transcribed using SuperScript III (Invitrogen). Real-time RT-PCR (Sybr Green; BioRad) was performed using with the gene-specific primers: […]
In certain experiments, 2 μg of extracted total RNA was reverse-transcribed using SuperScript III RT-PCR system (Invitrogen) according to the manufacturer's protocol. 1 μl of cDNA was amplified by PCR with one or more of the gene-specific primers of SEQ ID NOs:5-18 using optimized PCR cycles to obtain amplified reactions in the linear range.
In Table 1, above, the effects of IQ-1 treatment on genes associates with stem cell maintenance are shown, as measured by RT-PCR. The values are represented as ΔΔCT from the control gene β-actin.

[1] = test system: TCF/β-catenin reporter in NIH-3T3 cells; assay: TOPFLASH/FOPFLASH TCF/β-catenin reporter assay in NIH-3T3 cells; assay type: cell-based
Procedure: (§2) NIH-3T3 cells (wt), NIH-3T3 CBP(+/−) cells and NIH-3T3 p300(+/−) cells were transfected as described in (26). Briefly, cells were transfected with TOPFLASH or FOPFLASH, using Fugene6 (Roche Molecular Biochemicals). Transfection efficiencies were normalized with pRL-null luciferase plasmid. Luciferase assays were performed with the DUAL-Luciferase Reporter Assay System (Promega).
as §2, with “In certain experiments, NIH-3T3 cells” for “NIH-3T3 cells”
The Wnt/β-catenin reporter constructs TOPFLASH and FOPFLASH in wild-type NIH-3T3 cells (wt), NIH-3T3 CBP(+/−) cells and NIH-3T3 p300(+/−) cells were used to determine whether IQ-1, by targeting the PR72/130 subunit with PP2A, was selectively increasing β-catenin's usage of CBP as a coactivator at the expense of p300, thereby maintaining the ESCs in the undifferentiated state (FIG. 4A). A point mutant constitutively translocating β-catenin (pt-mut β-cat) was used to stimulate reporter activity (28).

[2] = test system: Nanog gene expression in ESCs; assay: Real-time RT-PCR for Nanog in feeder-free ESCs; assay type: cell-based, mouse
Procedure: FIG. 2. […] Real-time RT-PCR for Nanog was performed. The control expression level of Nanog at day 0 was set at 1. FIG. 2B, removal of IQ-1 decreases Nanog gene expression in ESCs. IQ-1 was removed from ESCs which had been cultured under feeder-free system and in the presence of IQ-1 (4 μg/ml), for three days. At the end of this period, mRNA was isolated and real-time RT-PCR was performed to assay for Nanog gene expression. FIG. 2C, effects of IQ-1 were not mediated through Stat3 signaling pathway as judged by luciferase reporter assay. Feeder-free ESCs, transfected with the pSTAT3-TA-Luc reporter, were exposed to IQ-1 at the indicated doses, or LIF. All error bars represent mean±SD.
as §1

[3] = stimulated with pt-mut β-catenin

T1 sequence (P45481 2-2441 limits assumed, one chain of several): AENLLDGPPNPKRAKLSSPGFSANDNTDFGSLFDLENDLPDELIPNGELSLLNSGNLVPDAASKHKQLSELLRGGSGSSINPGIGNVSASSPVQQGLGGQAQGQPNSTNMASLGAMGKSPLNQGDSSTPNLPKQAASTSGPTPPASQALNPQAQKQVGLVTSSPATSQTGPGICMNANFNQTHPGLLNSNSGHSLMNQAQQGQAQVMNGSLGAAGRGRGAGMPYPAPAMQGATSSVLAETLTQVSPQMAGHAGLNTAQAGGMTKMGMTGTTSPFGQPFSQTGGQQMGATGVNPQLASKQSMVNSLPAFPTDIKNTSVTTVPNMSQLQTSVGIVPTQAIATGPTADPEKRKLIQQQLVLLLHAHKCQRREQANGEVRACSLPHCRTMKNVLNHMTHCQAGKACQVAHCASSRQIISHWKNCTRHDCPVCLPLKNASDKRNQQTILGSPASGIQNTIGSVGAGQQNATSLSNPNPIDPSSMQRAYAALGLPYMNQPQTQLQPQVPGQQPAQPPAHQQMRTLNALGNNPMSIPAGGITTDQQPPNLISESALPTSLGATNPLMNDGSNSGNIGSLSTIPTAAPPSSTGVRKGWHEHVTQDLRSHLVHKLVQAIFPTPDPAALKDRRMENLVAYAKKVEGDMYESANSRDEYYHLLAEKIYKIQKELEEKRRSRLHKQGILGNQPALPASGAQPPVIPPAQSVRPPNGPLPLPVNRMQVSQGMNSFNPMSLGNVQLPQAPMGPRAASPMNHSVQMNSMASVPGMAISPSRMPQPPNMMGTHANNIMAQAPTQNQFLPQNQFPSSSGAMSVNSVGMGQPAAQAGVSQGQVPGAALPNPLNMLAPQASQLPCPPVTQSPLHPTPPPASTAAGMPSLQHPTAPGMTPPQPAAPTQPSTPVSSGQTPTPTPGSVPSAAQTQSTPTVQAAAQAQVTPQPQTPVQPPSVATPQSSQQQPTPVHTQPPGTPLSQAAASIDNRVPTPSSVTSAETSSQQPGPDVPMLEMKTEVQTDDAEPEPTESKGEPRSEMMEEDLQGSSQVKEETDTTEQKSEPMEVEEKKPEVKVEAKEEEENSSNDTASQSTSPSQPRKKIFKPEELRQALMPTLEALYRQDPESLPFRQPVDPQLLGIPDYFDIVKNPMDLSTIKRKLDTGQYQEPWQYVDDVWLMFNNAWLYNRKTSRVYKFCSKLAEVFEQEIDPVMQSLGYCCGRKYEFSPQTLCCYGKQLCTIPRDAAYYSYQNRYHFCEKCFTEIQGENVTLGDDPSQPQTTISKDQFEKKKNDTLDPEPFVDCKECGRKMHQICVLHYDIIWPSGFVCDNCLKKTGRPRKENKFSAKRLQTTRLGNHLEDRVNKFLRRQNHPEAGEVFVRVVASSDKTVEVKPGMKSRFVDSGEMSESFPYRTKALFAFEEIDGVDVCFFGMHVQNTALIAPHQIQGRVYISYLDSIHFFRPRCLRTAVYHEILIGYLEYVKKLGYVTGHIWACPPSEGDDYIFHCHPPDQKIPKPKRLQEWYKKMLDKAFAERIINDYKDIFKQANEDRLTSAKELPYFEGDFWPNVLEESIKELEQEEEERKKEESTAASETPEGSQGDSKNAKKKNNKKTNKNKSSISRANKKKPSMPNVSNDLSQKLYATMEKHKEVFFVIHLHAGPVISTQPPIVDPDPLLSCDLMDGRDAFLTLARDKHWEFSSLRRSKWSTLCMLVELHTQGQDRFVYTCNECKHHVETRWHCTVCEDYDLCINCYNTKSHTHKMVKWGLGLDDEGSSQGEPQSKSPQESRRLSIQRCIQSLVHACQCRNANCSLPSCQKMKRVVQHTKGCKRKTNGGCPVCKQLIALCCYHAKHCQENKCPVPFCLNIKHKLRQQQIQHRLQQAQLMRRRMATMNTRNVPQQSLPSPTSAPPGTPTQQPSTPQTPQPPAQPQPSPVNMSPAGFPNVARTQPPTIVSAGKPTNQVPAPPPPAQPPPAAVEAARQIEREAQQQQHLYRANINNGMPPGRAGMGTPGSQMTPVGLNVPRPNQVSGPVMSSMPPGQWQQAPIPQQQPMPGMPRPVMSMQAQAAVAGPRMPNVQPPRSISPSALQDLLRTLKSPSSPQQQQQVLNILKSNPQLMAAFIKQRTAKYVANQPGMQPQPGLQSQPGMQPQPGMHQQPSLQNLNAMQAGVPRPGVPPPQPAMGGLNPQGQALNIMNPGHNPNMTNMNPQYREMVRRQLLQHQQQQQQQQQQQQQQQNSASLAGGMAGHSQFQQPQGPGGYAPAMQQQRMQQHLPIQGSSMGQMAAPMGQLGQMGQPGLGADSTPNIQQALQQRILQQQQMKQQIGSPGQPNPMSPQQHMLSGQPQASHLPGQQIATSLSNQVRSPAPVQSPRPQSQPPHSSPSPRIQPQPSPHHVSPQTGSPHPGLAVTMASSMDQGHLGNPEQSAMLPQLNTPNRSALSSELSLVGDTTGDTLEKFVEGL

CC(=O)c1ccc(NN=C(C(N)=O)C2=NC(C)(C)Cc3ccccc32)cc1 [IQ-1]
relative amount of β-catenin associated with CBP (CBP/β-catenin complex): dramatic increase
Stat3/luciferase expression (Stat3 signaling pathway): did not affect Stat3/luciferase expression
SSEA-1 expression (Murine ESCs (D3 ES)): enhanced expression
ΔΔCT MDR-1 (P19 cells): 1.69
ΔΔCT Oct4 (P19 cells): 0.39
ΔΔCT Sox-2 (P19 cells): 4.31
ΔΔCT c-myc (P19 cells): −2.01
Fopflash reporter activity ([1]; NIH-3T3 cells): no effect
TOPFLASH activity, NIH-3T3 CBP (+/−) cells [1, 3]: did not affect TOPFLASH or FOPFLASH activity
TOPFLASH activity, wt NIH-3T3 cells [1, 3]: did not affect TOPFLASH or FOPFLASH activity
increase in TOPFLASH activity, NIH-3T3 p300 (+/−) cells [1, 3]: 2-3 fold
Nanog level after removal of IQ-1 from culture ([2]; IQ-1 (4 μg/ml) removed for three days): precipitous drop in Nanog level
Nanog expression ([2]; feeder-free ESCs, IQ-1 4 μg/ml or LIF 1000 U/ml, 21 hrs): significantly increased and maintained Nanog expression
